Measurements from EP4471028A1, “HYDRAZINO GROUP-CONTAINING COMPOUND” (priority 2022, dated 2023).

Columns and labels:
[1] = In vitro liver microsomal metabolic stability; assay type: in vitro ADME; conditions: human, liver microsomes, pH 7.4; 0.5 mg/mL microsomes, NADPH, 37 °C, 60 min; read-out: Human liver microsome Residual rate at 60 min%
Experimental: Liver microsome incubation samples were prepared by mixing a PBS buffer (pH 7.4), a liver microsome solution (0.5 mg/mL; species: human, monkey, dog, rat, and mouse), a test compound, and an NADPH + MgCl2 solution and incubated at 37 °C and 300 rpm for 1 h. Zero-hour samples were prepared by mixing a PBS buffer (pH 7.4), a liver microsome solution (0.5 mg/mL), and a test compound. An acetonitrile solution containing an internal standard was added to the samples, and supernatants were prepared by protein precipitation, diluted, and then assayed by LC/MS/MS.

[2] = In vivo pharmacokinetics (Table 4); conditions: plasma; for bioavailability: po, IG 10mg/kg versus IV 1mg/kg, read-out: Absolute F; for clearance: IV, 1mg/kg, read-out: CLz (converted)

SMILES | remaining at 1 h [1] [%] | bioavailability [2] [%] | clearance [2] [mL/min/kg]
CC(C)n1c(=O)n(N)c2cnc3cc(F)c(-c4ccc(OCCCN5CCCCC5)nc4)cc3c21 [Example 2] | 64.4 | 79.7 | 31
CC(C)n1c(=O)n(N)c2cnc3cc(F)c(-c4ccc(OCCCN5CCCC5)nc4)cc3c21 [Example 3] | 86.3 | 95.5 | 36.3
Nn1c(=O)n(C2CCOCC2)c2c3cc(-c4ccc(OCCCN5CCCC5)nc4)c(F)cc3ncc21 [Example 5] | 90.6 |  | 
COc1cc2ncc3c(c2cc1-c1ccc(OCCCN2CCCC2)nc1)n(C1CC1)c(=O)n3N [Example 11] | 58.6 |  | 
COC1CCC(n2c(=O)n(N)c3cnc4cc(F)c(-c5ccc(OCCCN6CCCC6)nc5)cc4c32)C1 (centres unmarked) [Example 13] | 56 |  | 
COC1CCC(n2c(=O)n(N)c3cnc4cc(F)c(-c5ccc(OCCCN(C)C)nc5)cc4c32)C1 (centres unmarked) [Example 14] | 66.2 |  | 
Nn1c(=O)n(C2CCOCC2)c2c3cc(-c4ccc(OCCCN5CCCCC5)nc4)c(F)cc3ncc21 [Example 15] | 58.4 |  | 
COc1cc2ncc3c(c2cc1-c1ccc(OCCCN2CCCCC2)nc1)n(C(C)C)c(=O)n3N [Example 16] | 72.4 |  | 
COc1cc2ncc3c(c2cc1-c1ccc(OCCCN2CCCC2)nc1)n(C(C)C)c(=O)n3N [Example 17] | 85.2 |  | 
Nn1c(=O)n(C2CC2)c2c3cc(-c4ccc(OCCCN5CCCCC5)nc4)c(F)cc3ncc21 [Example 18] |  | 75.9 | 26.7
Nn1c(=O)n(C2CC2)c2c3cc(-c4ccc(OCCCN5CCCC5)nc4)c(F)cc3ncc21 [Example 19] | 77 | 88.3 | 35.2
COC1CC(n2c(=O)n(N)c3cnc4cc(F)c(-c5ccc(OCCCN(C)C)nc5)cc4c32)C1 (centres unmarked) [Example 21] | 79.6 |  | 
CC(C)n1c(=O)n(N)c2cnc3cc(F)c(-c4ccc(OCC5CC(N6CCCC6)C5)nc4)cc3c21 (centres unmarked) [Example 22] | 73.3 |  | 
CC(C)n1c(=O)n(N)c2cnc3cc(F)c(-c4ccc(OCCCN5C6CCC5CC6)nc4)cc3c21 [Example 27] |  | 115 | 59.7
CC(C)n1c(=O)n(N)c2cnc3cc(F)c(-c4ccc(OCCCN5CC(CF)C5)nc4)cc3c21 [Example 28] | 65.6 | 77.4 | 7.45
CC(C)n1c(=O)n(N)c2cnc3cc(F)c(-c4ccc(OCCCN5CC6(CCC6)C5)nc4)cc3c21 [Example 29] | 64.9 | 85.9 | 5.27
CC(C)n1c(=O)n(N)c2nnc3cc(F)c(-c4ccc(OCCCN5CCCCC5)nc4)cc3c21 [Example 32] | 95.8 |  | 
